# Experimental data as given in PubChem BioAssay (NCI).
#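 Test compounds were applied to cells in 96-well plates for 48 hours at 5 doses. Definition used: TGI = concentration required for complete inhibition of growth.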
# Key:
# Assay in all cases: DTP human tumour cell line panel, 48 h
# NCI-H460 lung = system: NCI-H460 lung
# UO-31 renal = system: UO-31 renal
# HT29 colon = system: HT29 colon
# A498 renal = system: A498 renal
# SNB-75 CNS = system: SNB-75 CNS
# U251 CNS = system: U251 CNS
# HCT-15 colon = system: HCT-15 colon
# SF-295 CNS = system: SF-295 CNS
# HOP-92 NSCLC = system: HOP-92 NSCLC
# OVCAR-4 ovarian = system: OVCAR-4 ovarian
# SK-MEL-5 melanoma = system: SK-MEL-5 melanoma
# SNB-19 CNS = system: SNB-19 CNS
# LOX IMVI melanoma = system: LOX IMVI melanoma
# LXFL 529 NSCLC = system: LXFL 529 NSCLC
# DLD-1 colon = system: DLD-1 colon
# HL-60(TB) leukemia = system: HL-60(TB) leukemia
# HCT-116 colon = system: HCT-116 colon
# SK-MEL-2 melanoma = system: SK-MEL-2 melanoma
# DMS 114 small cell lung = system: DMS 114 small cell lung
# 786-0 renal = system: 786-0 renal
# DMS 273 small cell lung = system: DMS 273 small cell lung
# SF-539 CNS = system: SF-539 CNS
# UACC-62 melanoma = system: UACC-62 melanoma
# SK-OV-3 ovarian = system: SK-OV-3 ovarian
# HOP-18 NSCLC = system: HOP-18 NSCLC
# ACHN renal = system: ACHN renal
# NCI-H522 lung = system: NCI-H522 lung
# OVCAR-3 ovarian = system: OVCAR-3 ovarian
# SR leukemia = system: SR leukemia
# COLO 205 colon = system: COLO 205 colon
# RPMI-8226 leukemia = system: RPMI-8226 leukemia
# TK-10 renal = system: TK-10 renal
# SF-268 CNS = system: SF-268 CNS
# SNB-78 CNS = system: SNB-78 CNS
# SK-MEL-28 melanoma = system: SK-MEL-28 melanoma
# M19-MEL melanoma = system: M19-MEL melanoma
# M14 melanoma = system: M14 melanoma
# XF 498 CNS = system: XF 498 CNS
# K-562 leukemia = system: K-562 leukemia
# CAKI-1 renal = system: CAKI-1 renal
# EKVX NSCLC = system: EKVX NSCLC
# IGROV1 ovarian = system: IGROV1 ovarian
# RXF 393 renal = system: RXF 393 renal
# KM12 colon = system: KM12 colon
# NCI-H23 lung = system: NCI-H23 lung
# A549 NSCLC = system: A549 NSCLC
# SW-620 colon = system: SW-620 colon
# MOLT-4 leukemia = system: MOLT-4 leukemia
# CCRF-CEM leukemia = system: CCRF-CEM leukemia
# MALME-3M melanoma = system: MALME-3M melanoma
# HOP-62 NSCLC = system: HOP-62 NSCLC
# NCI-H226 lung = system: NCI-H226 lung
# HCC-2998 colon = system: HCC-2998 colon
# OVCAR-8 ovarian = system: OVCAR-8 ovarian
# RXF-631 renal = system: RXF-631 renal
# SN12C renal = system: SN12C renal
# UACC-257 melanoma = system: UACC-257 melanoma
# KM20L2 colon = system: KM20L2 colon
# OVCAR-5 ovarian = system: OVCAR-5 ovarian
smiles,measurement,setting,value
O=[N+]([O-])c1ccc(N=Nc2c(O)[nH]c3ccc(Br)cc23)cc1,TGI,NCI-H460 lung,> 46.5 µM
same,TGI,UO-31 renal,> 73.5 µM
same,TGI,HT29 colon,> 100 µM
same,TGI,A498 renal,49.1 µM
same,TGI,SNB-75 CNS,> 48.1 µM
same,TGI,U251 CNS,38.2 µM
same,TGI,HCT-15 colon,> 74.3 µM
same,TGI,SF-295 CNS,25 µM
same,TGI,HOP-92 NSCLC,26.5 µM
same,TGI,OVCAR-4 ovarian,33.4 µM
same,TGI,SK-MEL-5 melanoma,> 68 µM
same,TGI,SNB-19 CNS,36.6 µM
same,TGI,LOX IMVI melanoma,48.8 µM
same,TGI,LXFL 529 NSCLC,> 68.7 µM
same,TGI,DLD-1 colon,> 46.8 µM
same,TGI,HL-60(TB) leukemia,25.2 µM
same,TGI,HCT-116 colon,80.1 µM
same,TGI,SK-MEL-2 melanoma,99.2 µM
same,TGI,DMS 114 small cell lung,47.7 µM
same,TGI,786-0 renal,25.2 µM
same,TGI,DMS 273 small cell lung,24 µM
same,TGI,SF-539 CNS,32.1 µM
same,TGI,UACC-62 melanoma,> 51.2 µM
same,TGI,SK-OV-3 ovarian,45.6 µM
same,TGI,HOP-18 NSCLC,40.6 µM
same,TGI,ACHN renal,42.7 µM
same,TGI,NCI-H522 lung,> 87.7 µM
same,TGI,OVCAR-3 ovarian,45.9 µM
same,TGI,SR leukemia,> 53.9 µM
same,TGI,COLO 205 colon,> 68.7 µM
same,TGI,RPMI-8226 leukemia,45.6 µM
same,TGI,TK-10 renal,36 µM
same,TGI,SF-268 CNS,34.8 µM
same,TGI,SNB-78 CNS,42.3 µM
same,TGI,SK-MEL-28 melanoma,32.9 µM
same,TGI,M19-MEL melanoma,34.7 µM
same,TGI,M14 melanoma,> 52.8 µM
same,TGI,XF 498 CNS,53.7 µM
same,TGI,K-562 leukemia,> 43 µM
same,TGI,CAKI-1 renal,> 58.4 µM
same,TGI,EKVX NSCLC,58.9 µM
same,TGI,IGROV1 ovarian,> 53.2 µM
same,TGI,RXF 393 renal,35.6 µM
same,TGI,KM12 colon,> 100 µM
same,TGI,NCI-H23 lung,> 51.3 µM
same,TGI,A549 NSCLC,44.9 µM
same,TGI,SW-620 colon,> 100 µM
same,TGI,MOLT-4 leukemia,> 51.7 µM
same,TGI,CCRF-CEM leukemia,> 49.1 µM
same,TGI,MALME-3M melanoma,58 µM
same,TGI,HOP-62 NSCLC,33.8 µM
same,TGI,NCI-H226 lung,37.2 µM
same,TGI,HCC-2998 colon,> 100 µM
same,TGI,OVCAR-8 ovarian,28.3 µM
same,TGI,RXF-631 renal,33 µM
same,TGI,SN12C renal,> 31.6 µM
same,TGI,UACC-257 melanoma,43.4 µM
same,TGI,KM20L2 colon,> 100 µM
Nc1nc(-c2ccccc2)cc(-c2ccccc2O)n1,TGI,NCI-H460 lung,> 100 µM
same,TGI,UO-31 renal,28.7 µM
same,TGI,HT29 colon,> 100 µM
same,TGI,A498 renal,> 100 µM
same,TGI,SNB-75 CNS,82.4 µM
same,TGI,U251 CNS,> 100 µM
same,TGI,SF-295 CNS,> 100 µM
same,TGI,HOP-92 NSCLC,> 100 µM
same,TGI,OVCAR-4 ovarian,> 100 µM
same,TGI,SNB-19 CNS,> 100 µM
same,TGI,LOX IMVI melanoma,> 100 µM
same,TGI,LXFL 529 NSCLC,> 100 µM
same,TGI,DLD-1 colon,> 100 µM
same,TGI,HL-60(TB) leukemia,43.5 µM
same,TGI,HCT-116 colon,49 µM
same,TGI,DMS 114 small cell lung,> 100 µM
same,TGI,786-0 renal,> 100 µM
same,TGI,DMS 273 small cell lung,> 100 µM
same,TGI,SF-539 CNS,> 100 µM
same,TGI,UACC-62 melanoma,> 100 µM
same,TGI,SK-OV-3 ovarian,> 100 µM
same,TGI,HOP-18 NSCLC,> 100 µM
same,TGI,ACHN renal,> 100 µM
same,TGI,NCI-H522 lung,> 100 µM
same,TGI,OVCAR-3 ovarian,> 100 µM
same,TGI,SR leukemia,> 100 µM
same,TGI,COLO 205 colon,> 100 µM
same,TGI,RPMI-8226 leukemia,75.8 µM
same,TGI,TK-10 renal,98.2 µM
same,TGI,SF-268 CNS,> 100 µM
same,TGI,SNB-78 CNS,> 100 µM
same,TGI,SK-MEL-28 melanoma,> 100 µM
same,TGI,M19-MEL melanoma,> 100 µM
same,TGI,M14 melanoma,> 100 µM
same,TGI,XF 498 CNS,> 100 µM
same,TGI,K-562 leukemia,> 100 µM
same,TGI,CAKI-1 renal,> 100 µM
same,TGI,EKVX NSCLC,> 100 µM
same,TGI,IGROV1 ovarian,> 100 µM
same,TGI,RXF 393 renal,53.9 µM
same,TGI,KM12 colon,79.5 µM
same,TGI,NCI-H23 lung,> 100 µM
same,TGI,A549 NSCLC,> 100 µM
same,TGI,SW-620 colon,> 100 µM
same,TGI,MOLT-4 leukemia,80.2 µM
same,TGI,CCRF-CEM leukemia,> 100 µM
same,TGI,OVCAR-5 ovarian,68.2 µM
same,TGI,MALME-3M melanoma,> 100 µM
same,TGI,HOP-62 NSCLC,74.9 µM
same,TGI,NCI-H226 lung,53.2 µM
same,TGI,HCC-2998 colon,> 100 µM
same,TGI,OVCAR-8 ovarian,> 100 µM
same,TGI,RXF-631 renal,> 100 µM
same,TGI,SN12C renal,> 100 µM
same,TGI,UACC-257 melanoma,> 100 µM
same,TGI,KM20L2 colon,> 100 µM
CCOC(=O)N1C(=O)C2C3C=CC(C2C1=O)C1C2C(=O)N(C(=O)OCC)C(=O)C2C31 (configuration not stated),TGI,NCI-H460 lung,> 64.4 µM
same,TGI,UO-31 renal,> 100 µM
same,TGI,HT29 colon,> 100 µM
same,TGI,A498 renal,> 100 µM
same,TGI,SNB-75 CNS,> 100 µM
same,TGI,U251 CNS,> 100 µM
same,TGI,HCT-15 colon,> 67.2 µM
same,TGI,SF-295 CNS,> 100 µM
same,TGI,HOP-92 NSCLC,> 100 µM
same,TGI,OVCAR-4 ovarian,> 100 µM
same,TGI,SK-MEL-5 melanoma,> 100 µM
same,TGI,SNB-19 CNS,> 100 µM
same,TGI,LOX IMVI melanoma,> 64 µM
same,TGI,LXFL 529 NSCLC,> 100 µM
same,TGI,DLD-1 colon,> 100 µM
same,TGI,HL-60(TB) leukemia,41.1 µM
same,TGI,HCT-116 colon,> 55.2 µM
same,TGI,SK-MEL-2 melanoma,> 100 µM
same,TGI,DMS 114 small cell lung,> 70 µM
same,TGI,786-0 renal,> 100 µM
same,TGI,DMS 273 small cell lung,> 60.7 µM
same,TGI,SF-539 CNS,> 100 µM
same,TGI,UACC-62 melanoma,> 100 µM
same,TGI,SK-OV-3 ovarian,> 100 µM
same,TGI,HOP-18 NSCLC,> 100 µM
same,TGI,ACHN renal,> 100 µM
same,TGI,NCI-H522 lung,> 100 µM
same,TGI,OVCAR-3 ovarian,> 100 µM
same,TGI,COLO 205 colon,> 100 µM
same,TGI,RPMI-8226 leukemia,> 100 µM
same,TGI,TK-10 renal,> 100 µM
same,TGI,SF-268 CNS,> 100 µM
same,TGI,SNB-78 CNS,> 100 µM
same,TGI,SK-MEL-28 melanoma,> 100 µM
same,TGI,M19-MEL melanoma,> 100 µM
same,TGI,M14 melanoma,> 100 µM
same,TGI,XF 498 CNS,> 100 µM
same,TGI,K-562 leukemia,> 100 µM
same,TGI,CAKI-1 renal,> 100 µM
same,TGI,EKVX NSCLC,> 100 µM
same,TGI,IGROV1 ovarian,> 100 µM
same,TGI,RXF 393 renal,> 100 µM
same,TGI,KM12 colon,> 100 µM
same,TGI,NCI-H23 lung,> 100 µM
same,TGI,A549 NSCLC,> 100 µM
same,TGI,SW-620 colon,> 59.4 µM
same,TGI,MOLT-4 leukemia,> 100 µM
same,TGI,CCRF-CEM leukemia,> 100 µM
same,TGI,OVCAR-5 ovarian,> 100 µM
same,TGI,MALME-3M melanoma,> 100 µM
same,TGI,HOP-62 NSCLC,> 100 µM
same,TGI,NCI-H226 lung,> 100 µM
same,TGI,HCC-2998 colon,> 100 µM
same,TGI,OVCAR-8 ovarian,> 100 µM
same,TGI,RXF-631 renal,> 100 µM
same,TGI,SN12C renal,> 100 µM
same,TGI,UACC-257 melanoma,> 100 µM
same,TGI,KM20L2 colon,> 100 µM
